What was measured:
[1] = system: Tyrosine-protein kinase ABL1 (Homo sapiens), P00519 [Y253F]; experiment: Inhibition of phosphorylated ABL1 Y253F mutant (unknown origin) assessed as residual activity at 1000 nM by KINOMEscan analysis relative to control
[2] = target: Mitogen-activated protein kinase 3 (Homo sapiens) (UniProt P27361); experiment: Inhibition of ERK1 (unknown origin) assessed as residual activity at 1000 nM by KINOMEscan analysis relative to control
[3] = target: T1, Serine/threonine-protein kinase haspin (Homo sapiens) (UniProt Q8TF76); experiment: Inhibition of HASPIN (unknown origin) assessed as residual activity at 1000 nM by KINOMEscan analysis relative to control
T1 sequence (whole entry): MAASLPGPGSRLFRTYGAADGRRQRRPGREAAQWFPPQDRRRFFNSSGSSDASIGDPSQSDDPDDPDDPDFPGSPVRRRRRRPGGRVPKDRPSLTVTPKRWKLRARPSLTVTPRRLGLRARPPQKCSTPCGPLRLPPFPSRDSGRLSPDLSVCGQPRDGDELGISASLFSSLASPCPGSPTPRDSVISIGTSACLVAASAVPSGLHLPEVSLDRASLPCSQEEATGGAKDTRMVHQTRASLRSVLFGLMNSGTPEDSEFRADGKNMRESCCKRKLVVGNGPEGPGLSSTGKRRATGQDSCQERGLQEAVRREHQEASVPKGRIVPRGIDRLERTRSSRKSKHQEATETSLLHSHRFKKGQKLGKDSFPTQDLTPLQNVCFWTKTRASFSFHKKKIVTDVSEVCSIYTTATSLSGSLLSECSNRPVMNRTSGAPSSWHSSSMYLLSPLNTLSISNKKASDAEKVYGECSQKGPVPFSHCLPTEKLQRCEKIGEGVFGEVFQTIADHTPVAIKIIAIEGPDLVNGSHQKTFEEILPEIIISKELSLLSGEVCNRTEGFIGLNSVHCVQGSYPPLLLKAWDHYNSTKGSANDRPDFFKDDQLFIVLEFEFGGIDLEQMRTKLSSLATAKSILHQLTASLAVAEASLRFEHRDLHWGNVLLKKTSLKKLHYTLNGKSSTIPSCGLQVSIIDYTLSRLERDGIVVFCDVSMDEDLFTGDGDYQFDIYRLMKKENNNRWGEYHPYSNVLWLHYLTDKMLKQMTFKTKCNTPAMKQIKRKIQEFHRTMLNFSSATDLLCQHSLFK

[4] = target: Tyrosine-protein kinase Lck (Homo sapiens) (UniProt P06239); experiment: Inhibition of LCK (unknown origin) assessed as residual activity at 1000 nM by KINOMEscan analysis relative to control
[5] = target: T2, Serine/threonine-protein kinase STK11 (Homo sapiens) (UniProt Q15831); experiment: Inhibition of LKB1 (unknown origin) assessed as residual activity at 1000 nM by KINOMEscan analysis relative to control
T2 sequence (whole entry): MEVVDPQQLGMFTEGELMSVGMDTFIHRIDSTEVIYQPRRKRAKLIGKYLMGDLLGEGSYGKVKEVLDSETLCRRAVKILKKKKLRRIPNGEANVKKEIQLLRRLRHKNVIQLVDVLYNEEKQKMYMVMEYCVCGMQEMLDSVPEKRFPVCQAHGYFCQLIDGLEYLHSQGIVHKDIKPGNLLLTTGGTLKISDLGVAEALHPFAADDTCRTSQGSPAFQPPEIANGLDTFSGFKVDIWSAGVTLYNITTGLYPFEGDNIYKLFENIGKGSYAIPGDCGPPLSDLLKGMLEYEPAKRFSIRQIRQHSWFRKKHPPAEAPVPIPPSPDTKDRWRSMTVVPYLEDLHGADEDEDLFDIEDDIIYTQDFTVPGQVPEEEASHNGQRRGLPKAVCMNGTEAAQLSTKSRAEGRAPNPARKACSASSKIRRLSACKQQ

[6] = target: Misshapen-like kinase 1 (Homo sapiens) (UniProt Q8N4C8); experiment: Inhibition of MINK (unknown origin) assessed as residual activity at 1000 nM by KINOMEscan analysis relative to control
[7] = target: T3, Serine/threonine-protein kinase Nek10 (Homo sapiens) (UniProt Q6ZWH5); experiment: Inhibition of NEK10 (unknown origin) assessed as residual activity at 1000 nM by KINOMEscan analysis relative to control
T3 sequence (whole entry): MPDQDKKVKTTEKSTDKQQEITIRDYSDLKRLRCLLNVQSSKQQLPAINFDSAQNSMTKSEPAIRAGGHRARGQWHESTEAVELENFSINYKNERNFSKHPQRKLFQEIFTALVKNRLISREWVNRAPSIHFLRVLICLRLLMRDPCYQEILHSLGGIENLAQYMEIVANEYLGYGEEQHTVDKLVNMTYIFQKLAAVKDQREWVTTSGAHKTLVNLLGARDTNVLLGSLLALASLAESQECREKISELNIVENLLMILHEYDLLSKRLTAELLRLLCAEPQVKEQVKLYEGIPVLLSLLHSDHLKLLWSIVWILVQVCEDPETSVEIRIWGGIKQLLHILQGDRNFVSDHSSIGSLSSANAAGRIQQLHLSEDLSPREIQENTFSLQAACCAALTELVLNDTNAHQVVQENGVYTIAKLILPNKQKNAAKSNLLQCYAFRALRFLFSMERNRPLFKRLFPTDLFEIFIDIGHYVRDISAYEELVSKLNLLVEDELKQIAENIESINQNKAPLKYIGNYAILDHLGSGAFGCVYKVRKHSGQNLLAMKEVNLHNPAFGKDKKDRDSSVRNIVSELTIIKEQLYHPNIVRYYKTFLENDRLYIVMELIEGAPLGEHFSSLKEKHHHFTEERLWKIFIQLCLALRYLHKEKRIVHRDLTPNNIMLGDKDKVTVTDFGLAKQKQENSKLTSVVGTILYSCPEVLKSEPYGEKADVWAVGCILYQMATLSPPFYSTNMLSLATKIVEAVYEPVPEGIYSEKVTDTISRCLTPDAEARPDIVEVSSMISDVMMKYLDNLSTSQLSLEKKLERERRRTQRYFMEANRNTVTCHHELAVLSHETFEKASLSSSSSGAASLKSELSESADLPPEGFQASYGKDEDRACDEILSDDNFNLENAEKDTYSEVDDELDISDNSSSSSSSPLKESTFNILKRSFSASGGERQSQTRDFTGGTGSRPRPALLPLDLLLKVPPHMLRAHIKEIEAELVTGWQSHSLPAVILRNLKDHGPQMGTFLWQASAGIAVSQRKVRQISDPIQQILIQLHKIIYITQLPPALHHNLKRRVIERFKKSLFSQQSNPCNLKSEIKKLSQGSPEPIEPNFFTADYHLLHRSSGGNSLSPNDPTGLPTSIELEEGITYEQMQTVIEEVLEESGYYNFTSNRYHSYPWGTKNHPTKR

[8] = target: Protein kinase C delta type (Homo sapiens) (UniProt Q05655); experiment: Inhibition of PRKCD (unknown origin) assessed as residual activity at 1000 nM by KINOMEscan analysis relative to control
Protein kinase C delta type (Homo sapiens), sequence (Q05655 whole entry, looked up): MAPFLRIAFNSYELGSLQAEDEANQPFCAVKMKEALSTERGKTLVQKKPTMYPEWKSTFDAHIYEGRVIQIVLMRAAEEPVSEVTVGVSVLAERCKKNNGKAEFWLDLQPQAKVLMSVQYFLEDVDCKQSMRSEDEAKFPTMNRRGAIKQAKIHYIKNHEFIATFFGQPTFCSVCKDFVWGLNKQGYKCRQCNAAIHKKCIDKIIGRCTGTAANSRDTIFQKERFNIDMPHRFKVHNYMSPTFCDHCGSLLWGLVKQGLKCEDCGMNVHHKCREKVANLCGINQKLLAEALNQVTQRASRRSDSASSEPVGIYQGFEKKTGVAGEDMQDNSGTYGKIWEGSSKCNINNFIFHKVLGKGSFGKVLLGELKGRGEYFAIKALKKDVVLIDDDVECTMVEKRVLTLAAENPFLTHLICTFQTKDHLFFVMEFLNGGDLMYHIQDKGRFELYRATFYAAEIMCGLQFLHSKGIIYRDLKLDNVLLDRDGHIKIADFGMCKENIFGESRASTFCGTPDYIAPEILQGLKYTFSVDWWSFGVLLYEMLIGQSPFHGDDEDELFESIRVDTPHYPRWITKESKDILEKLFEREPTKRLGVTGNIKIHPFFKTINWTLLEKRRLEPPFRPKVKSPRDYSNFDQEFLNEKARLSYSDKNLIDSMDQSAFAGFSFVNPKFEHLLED

Misshapen-like kinase 1 (Homo sapiens), sequence (Q8N4C8 whole entry, looked up): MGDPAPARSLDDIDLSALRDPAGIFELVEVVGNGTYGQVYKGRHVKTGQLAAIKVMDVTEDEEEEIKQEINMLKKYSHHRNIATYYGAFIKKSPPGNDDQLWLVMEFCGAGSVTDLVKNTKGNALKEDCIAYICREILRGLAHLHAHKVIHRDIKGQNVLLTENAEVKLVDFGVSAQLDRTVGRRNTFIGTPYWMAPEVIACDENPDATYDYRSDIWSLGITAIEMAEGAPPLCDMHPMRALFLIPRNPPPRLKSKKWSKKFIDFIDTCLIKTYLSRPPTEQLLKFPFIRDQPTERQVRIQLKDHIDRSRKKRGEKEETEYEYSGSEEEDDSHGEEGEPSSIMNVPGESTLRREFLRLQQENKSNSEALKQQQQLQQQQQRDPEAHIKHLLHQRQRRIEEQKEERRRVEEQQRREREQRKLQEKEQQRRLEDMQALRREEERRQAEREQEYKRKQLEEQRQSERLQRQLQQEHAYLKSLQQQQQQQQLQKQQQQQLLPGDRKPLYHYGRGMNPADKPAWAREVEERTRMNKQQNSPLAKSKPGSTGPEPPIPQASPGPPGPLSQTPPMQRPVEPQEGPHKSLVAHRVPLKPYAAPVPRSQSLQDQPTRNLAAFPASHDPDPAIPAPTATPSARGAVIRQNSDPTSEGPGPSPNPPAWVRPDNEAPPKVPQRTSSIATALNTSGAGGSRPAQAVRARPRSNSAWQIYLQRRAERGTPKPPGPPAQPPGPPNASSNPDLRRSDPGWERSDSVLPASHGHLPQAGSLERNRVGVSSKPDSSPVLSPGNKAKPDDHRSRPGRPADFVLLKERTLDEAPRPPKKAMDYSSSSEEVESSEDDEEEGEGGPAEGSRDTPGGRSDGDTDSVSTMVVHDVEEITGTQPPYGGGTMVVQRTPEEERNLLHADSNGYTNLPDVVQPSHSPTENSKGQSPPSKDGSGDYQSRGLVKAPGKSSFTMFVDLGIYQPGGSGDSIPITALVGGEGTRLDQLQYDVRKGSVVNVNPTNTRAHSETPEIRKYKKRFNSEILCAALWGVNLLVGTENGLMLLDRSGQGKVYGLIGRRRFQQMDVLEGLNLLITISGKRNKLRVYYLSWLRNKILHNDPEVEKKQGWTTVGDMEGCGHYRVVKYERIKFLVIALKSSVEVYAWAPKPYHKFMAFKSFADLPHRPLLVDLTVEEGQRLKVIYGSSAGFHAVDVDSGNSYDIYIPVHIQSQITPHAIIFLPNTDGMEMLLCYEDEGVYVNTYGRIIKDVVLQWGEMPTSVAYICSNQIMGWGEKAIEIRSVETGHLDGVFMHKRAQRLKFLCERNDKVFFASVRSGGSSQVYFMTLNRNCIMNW
Tyrosine-protein kinase Lck (Homo sapiens), sequence (P06239 2-509 limits assumed): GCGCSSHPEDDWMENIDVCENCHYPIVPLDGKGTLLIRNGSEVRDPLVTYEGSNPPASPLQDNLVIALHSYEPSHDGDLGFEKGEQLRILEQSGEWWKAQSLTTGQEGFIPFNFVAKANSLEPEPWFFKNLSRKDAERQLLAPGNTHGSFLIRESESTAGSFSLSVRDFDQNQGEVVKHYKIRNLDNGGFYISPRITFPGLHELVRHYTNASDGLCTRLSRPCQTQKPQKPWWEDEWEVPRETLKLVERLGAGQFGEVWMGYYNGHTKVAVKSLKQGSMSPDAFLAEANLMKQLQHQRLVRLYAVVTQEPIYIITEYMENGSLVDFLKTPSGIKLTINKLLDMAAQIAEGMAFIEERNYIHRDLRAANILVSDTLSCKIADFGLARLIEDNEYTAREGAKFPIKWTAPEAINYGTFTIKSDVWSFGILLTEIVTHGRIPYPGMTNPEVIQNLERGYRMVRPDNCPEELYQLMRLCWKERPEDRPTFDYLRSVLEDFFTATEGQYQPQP
Mitogen-activated protein kinase 3 (Homo sapiens), sequence (P27361 whole entry): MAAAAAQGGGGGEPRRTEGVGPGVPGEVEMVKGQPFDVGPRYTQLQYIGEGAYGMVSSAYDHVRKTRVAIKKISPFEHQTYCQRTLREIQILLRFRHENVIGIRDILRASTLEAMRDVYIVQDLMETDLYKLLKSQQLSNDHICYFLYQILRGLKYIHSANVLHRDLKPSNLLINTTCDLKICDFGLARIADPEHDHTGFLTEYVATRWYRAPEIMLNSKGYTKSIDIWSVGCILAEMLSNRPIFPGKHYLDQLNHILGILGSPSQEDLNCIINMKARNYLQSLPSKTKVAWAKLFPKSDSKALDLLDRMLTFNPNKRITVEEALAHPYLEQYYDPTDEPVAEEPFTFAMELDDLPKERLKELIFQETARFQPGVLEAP

## COc1cc2nc(C)nc(N[C@H](C)c3cccc(-c4cn[nH]c4)c3)c2cc1OC
[1]
  Activity: 92%
[2]
  Activity: 100%
[3]
  Activity: 81%
[4]
  Activity: 56%
[5]
  Activity: 100%
[6]
  Activity: 100%
[7]
  Activity: 90%
[8]
  Activity: 59%

## COc1cc2ncnc(N[C@H](C)c3cccc4ccccc34)c2cc1OC
[1]
  Activity: 79%
[2]
  Activity: 100%
[3]
  Activity: 99%
[4]
  Activity: 70%
[5]
  Activity: 100%
[6]
  Activity: 74%
[7]
  Activity: 68%
[8]
  Activity: 81%
